Literature values, collected in publication PMC6219411 (Drug Design, Development and Therapy, 2018).

Conditions: oral preparation

- mean elimination half-life: 40 to 50 h
- time to maximum plasma concentrations: ≤ 2 h
SMILES: CC(C)(C#N)c1cc(Cn2cncn2)cc(C(C)(C)C#N)c1 [anastrozole, Anastrozole]
